Like-named read-outs stand apart in the source and are kept apart here.
Legend:
HMGB1 = HMGB1 release screen, Nano-Glo HiBiT extracellular detection; type: cell-based; settings: extracellular luminescence
Procedure: Construction of pBiT3.1-HMGB1 Plasmid
(§1) HMGB1 derived from pCMV6-AC-GFP plasmid (ref. RG205918, Origene) was amplified by PCR using the following set of primers: Seq ID No 1: forward, 5′-[…]-3′; Seq ID No 2: reverse, 5′-[…]-3′. The PCR fragment was subsequently digested by EcoRI and XhoI (R3101S and R0146S respectively, New England Biolabs) and inserted between the EcoRI and XhoI sites in the plasmid pBiT3.1-C(ref. N237A, Promega). The resulting plasmid (pBiT3.1-HMGB1) was grown in NEB10-beta competent E. coli (ref. C3019I, New England Biolabs) and purified using the NucleoBond Xtra Midi Kit (ref. 740410, Macherey-Nagel).
Construction of HMGB1 Reporter Cell Line
(§2) pBiT3.1-HMGB1 was transfected in MDA-MB-231 cells (ref. ATCC HTB-2) using Lipofectamine 2000 reagent (ref. 11668, Invitrogen). Transfected cells were selected for blasticidin resistance (15 μg/ml, ref. Al 113903 Gibco) in medium containing DMEM 1× (ref. 1995065, Gibco) with 1% penicillin and streptomycin, and 10% fetal bovine serum.
Screen for HMGB1-Releasing Drugs
(§3) MDA-MB-231 cells stably expressing HMGB1-HiBiT (10^4 cells/well) were seeded into white 96-well plates (ref.3917, Corning) and allowed to recover for 24h. […] Mitoxantrone dihydrochloride (ref. M6545, Sigma-Aldrich) was used as a positive control. Extracellular translocation of HMGB1 was measured using the Nano-Glo HiBiT extracellular detection system (ref. N2422, Promega). Nano-Glo HiBiT Extracellular Reagent was prepared in advance, added to the well and incubated 10 min. Luminescence of the extracellular HMGB1-HiBiT was quantified using the Spark 20M spectrofluorimeter (TECAN)

Calreticulin = Calreticulin release (ER to plasma membrane translocation) screen, Nano-Glo HiBiT extracellular detection; type: cell-based; settings: extracellular luminescence, read-out: CalR EC50
Procedure: as §1, with “Construction of pBiT3.1-Calreticulin Plasmid Calreticulin” for “HMGB1”, “pCMV6-AC” for “pCMV6-AC-GFP”, “SC320287,” for “RG205918,”, “3:” for “1:”, “4:” for “2:”, “(pBiT3.1-Calreticulin)” for “(pBiT3.1-HMGB1)”
Construction of Calreticulin Reporter Cell Line
as §2, with “pBiT3.1-Calreticulin” for “pBiT3.1-HMGB1”
Screen for Calreticulin-ER to Plasma Membrane Translocating Drugs
as §3, with “Calreticulin-HiBiT” for “HMGB1-HiBiT”, “Calreticulin” for “HMGB1”, “min.” for “min. Luminescence of the extracellular HMGB1-HiBiT was quantified using the Spark 20M spectrofluorimeter (TECAN)”
Luminescence of the extracellular Calreticulin-HiBiT was quantified using the Spark 20M spectrofluorimeter (TECAN).

[1] = Homo sapiens, MDA-MB-231, MDA-MB-231 cells stably expressing HMGB1-HiBiT
[2] = Homo sapiens, MDA-MB-231, MDA-MB-231 cells stably expressing Calreticulin-HiBiT

SMILES | EC50 (HMGB1; [1]) | EC50 (Calreticulin; [2]) | melting point | EC50 (HMGB1; MDA-MB-231 cells stably expressing HMGB1-HiBiT) | EC50 (Calreticulin; MDA-MB-231 cells stably expressing Calreticulin-HiBiT)
CN(C)c1cc2c(=O)[nH]c(CN3CC(C)(C)c4ccccc43)nc2cn1 [Ex. #92, 6-(dimethylamino)-2-[(3,3-dimethylindolin-1-yl)methyl]-3H-pyrido[3,4-d]pyrimidin-4-one] | 0.14 µM | 0.0988 µM | 194 to 211 °C | – | –
CC1(C)CN(Cc2nc3cc4c(cc3c(=O)[nH]2)OCO4)c2ccccc21 [Ex. #119, 6-[(3,3-dimethylindolin-1-yl)methyl]-7H-[1,3]dioxolo[4,5-g]quinazolin-8-one] | 7.56 µM | 6.16 µM | 199 to 221 °C | – | –
CC1(C)CN(Cc2nc3ccc(C#N)cc3c(=O)[nH]2)c2ccccc21 [Ex. #95, 2-[(3,3-dimethylindolin-1-yl)methyl]-4-oxo-3H-quinazoline-6-carbonitrile] | 11.5 µM | 9.96 µM | 187 to 197 °C | – | –
COc1ccc2nc(CN3CC(C)c4ccccc43)[nH]c(=O)c2c1 (stereo not shown) [Ex. #3, 6-methoxy-2-[(3-methylindolin-1-yl)methyl]-3H-quinazolin-4-one] | 0.263 µM | 0.191 µM | 192 to 213 °C | – | –
CC(C)(C)OC(=O)NCCCCOc1ccc2nc(CN3CCc4ccccc43)[nH]c(=O)c2c1 [Ex. #90, tert-butyl N-[4-[[2-(indolin-1-ylmethyl)-4-oxo-3H-quinazolin-6-yl]oxy]butyl]carbamate] | 8.76 µM | 5.49 µM | 167 to 181 °C | – | –
CN(C)c1cc2c(=O)[nH]c(CN3CCc4ccccc43)nc2cc1F [Ex. #80, 6-(dimethylamino)-7-fluoro-2-(indolin-1-ylmethyl)-3H-quinazolin-4-one] | 0.225 µM | 0.22 µM | 200 to 223 °C | – | –
COc1ccc2nc(CN3CCc4ccc(F)cc43)[nH]c(=O)c2c1 [Ex. #7, 2-[(6-fluoroindolin-1-yl)methyl]-6-methoxy-3H-quinazolin-4-one] | 0.425 µM | 0.323 µM | 229 to 235 °C | – | –
COc1ccc2nc(CN3CCc4c(F)cccc43)[nH]c(=O)c2c1 [Ex. #126, 2-[(4-fluoroindolin-1-yl)methyl]-6-methoxy-3H-quinazolin-4-one] | – | 8.06 µM | 222 to 232 °C | – | –
COCCOc1ccc2nc(CN3CC(C)(C)c4ccccc43)[nH]c(=O)c2c1 [Ex. #97, 2-[(3,3-dimethylindolin-1-yl)methyl]-6-(2-methoxyethoxy)-3H-quinazolin-4-one] | 7.56 µM | 7.36 µM | – | – | –
COC1CN(c2ccc3nc(CN4CCc5ccccc54)[nH]c(=O)c3c2)C1 [Ex. #101, 2-(indolin-1-ylmethyl)-6-(3-methoxyazetidin-1-yl)-3H-quinazolin-4-one] | 10.2 µM | 10 µM | – | – | –
COc1ccc2nc(CN3CC(C)c4ccccc43)[nH]c(=O)c2c1 (single isomer, unassigned) [Ex. #4, 6-methoxy-2-[(3-methylindolin-1-yl)methyl]-3H-quinazolin-4-one] | – | – | – | 0.207 µM | 0.172 µM
COc1ccc2nc(CN3Cc4ccccc4C3)[nH]c(=O)c2c1 [Ex. #10, 2-(isoindolin-2-ylmethyl)-6-methoxy-3H-quinazolin-4-one] | 6.86 µM | 4.46 µM | – | – | –
O=c1[nH]c(CN2CCc3ccccc3C2)nc2ccc(Cl)cc12 [Ex. #59, 6-chloro-2-(3,4-dihydro-1H-isoquinolin-2-ylmethyl)-3H-quinazolin-4-one] | 7.51 µM | 4.41 µM | – | – | –
O=c1[nH]c(CN2Cc3ccccc3C2)nc2ccc(Cl)cc12 [Ex. #50, 6-chloro-2-(isoindolin-2-ylmethyl)-3H-quinazolin-4-one] | 11.6 µM | 4.66 µM | – | – | –
O=c1[nH]c(CN2CCc3ccccc32)nc2ccc(C(F)(F)F)cc12 [Ex. #85, 2-(indolin-1-ylmethyl)-6-(trifluoromethyl)-3H-quinazolin-4-one] | 3.56 µM | 1.96 µM | – | – | –

Source: patent US20230150978A1, “QUINAZOLINONE DERIVATIVES AND USES THEREOF FOR TREATING A CANCER” (ENYO PHARMA, priority 2020, published 2023)
